Source: patent US5508384A, “Polypeptide derived from a popamine receptor, and compositions and methods thereof” (New York University, priority 1993, dated 1996)

Key:
[1] = tested on: dopamine receptor sites in the basal ganglia; conditions: cited from earlier work
[2] = tested on: norepinephrine receptor sites in thalamic and hypothalamic areas; conditions: cited from earlier work
[3] = basal ganglia, thalamic and hypothalamic areas; cited from earlier work
[4] = in vivo; cited from earlier work
[5] = Radioligand binding assay, polypeptide in DMPC small unilamellar vesicles; conditions: lipid:peptide 147:1, 1 h at 25° C., pH 7.4, FIG. 7
Procedure: Preparation of Small Unilamellar Visicles. Polypeptides were incorporated into DMPC vesicles at lipid:peptide ratio of 147:1 in the followinq manner: polypept ide in HFIP was mixed with dimyrystyroyl-phosphatidylcholine (synthetic) (DMPC) in dry chloroform and dried to a film with a stream of dry nitrogen at 0° C. This residue was then dried further overnight under a vacuum (1×10^-2 torr). The residue was then hydrated in […] and sonicated for a 30-min period under nitrogen at 0° C. The suspension was sedimented for a 30-min at 100,000 q (4° C.) to remove any residual titanium particles and large unilamellar vesicles The supernatant was removed and sedimented once more at 159,000 g for a 45 min period at 4° C. The supernatant in the lower portion was used immediately.
Radioligand Bining Assays. A 0.50 mL volume of 1.00 nM [^3 H]-spiperone(New England specific activity […]) was added to assay tubes which contained 0.5 mL lipid/peptide supernatant, 0.5 mL Tris buffer pH 7.4 and 0.5 mL of cold drug for a final volume of 2.0 mL. […]
Filters were then washed with 6.0 mL of cold 50 mM Tris-HCl buffer, pH 7.40. For detection of radioactivity, filters were placed in 2.0 mL of scintillation fluid (Scintiverse) and incubated for 24 h. The activity of the tritium was determined in a Beckman LS 7500 liquid scintillation counter. […]

[6] = Circular dichroism, helical content; type: physicochemical; conditions: solvent system in which most membrane polypeptides are strongly helical; FIG. 6
Procedure: Circular Dichroism (CD). Spectra were recorded on an Aviv model 60 DS circular dichroism spectrophotometer at room temperature with a 1 cm by 1 mm cell. The amplitude of the CD signal was calibrated using 10.1% (w/v) solution of d (+)-camphorsulfonic acid (Aldrich) and the wavelength of the CD signal was set using standard absorbance peaks of benzene vapor. Polypeptide ccncentrations were determined in a Cary 210 UV spectrophotomer wwith the absorbance measured at 280 nm. Helical content was estimated using CD signal intensity according to the method of Chen. et al Biochem. 13:[…] (1974). This calculation compares the experimental ellipticity at. 222 nm ( [θ]222) ( [θ]) to a theoretical [θ]222. The theoretical [θ]222 is empirically adjusted to account for differences in polypeptide length and is based on experimental CD data from a series of proteins with known crystal structures. Since both the curve shape and magnitude are important in analysis of a CD spectrum for secondary structure contributions, we also considered qualitatively the contributions to the spectral shapes from different secondary structures using reference curves for poly (L-lysine).

Compound	Blocks DA [1]	Blocks NE [2]	other results
CN1CCN(CC/C=C2/c3ccccc3Sc3ccc(S(=O)(=O)N(C)C)cc32)CC1 [Thiothixene]	Yes+	Yes+++	–
O=C(CCCN1CCC(O)(c2ccc(Cl)cc2)CC1)c1ccc(F)cc1 [Haloperidol]	Yes++++	Yes+	–
CN(C)CCCN1c2ccccc2Sc2ccc(Cl)cc21 [Chlorpromazine]	Yes++	Yes++	–
COC(=O)[C@H]1[C@H]2C[C@@H]3c4[nH]c5cc(OC)ccc5c4CCN3C[C@H]2C[C@@H](OC(=O)c2cc(OC)c(OC)c(OC)c2)[C@@H]1OC [Reserpine]	–	–	concentrations of norepinephrine and dopamine [3]: reduces
CN1CCN(C2=Nc3cc(Cl)ccc3Nc3ccccc32)CC1 [clozapine]	–	–	motor side effects [4]: apparently capable of producing less motor side effects
Polypeptide III: consensus peptide of the dopamine D2 receptor transmembrane domains I-VII (DYAIFVLYASAWLSFNCPFIVTLNIK)	–	–	binding of [^3 H]-spiperone (receptor-like functional binding) [5]: binding to the neuroleptic agent, spiperone, into a stereoselective, concentration-dependent manner; helical structure from CD spectrum [6]: only partially helical
